Here are results for one molecule from US8008490B2, “Polymorphic forms of aripiprazole and method” (Sandoz AG, priority 2005, dated 2011).

A short description of data set [1]: Moisture sorption isotherm (hygroscopicity). The format is physicochemical. Conditions: FIG. 10.
A short description of data set [2]: Solution mediated transformation of aripiprazole forms (thermodynamic stability). The format is physicochemical. The settings on record: at temperatures at and below about 60° C.

`O=C1CCc2ccc(OCCCCN3CCN(c4cccc(Cl)c4Cl)CC3)cc2N1` [Form X of aripiprazole, 7-[4-[4-(2,3-dichlorophenyl)-1-piperazinyl]butoxy]-3,4-dihydro-2(1H)-quinolinone]: in data set [1], the “conversion into a hydrated form of aripiprazole” value is given as “does not substantially convert into a hydrated form of aripiprazole” and the hygroscopicity result is “low hygroscopicity”. In addition, the “thermodynamic stability (Gibbs free energy relative to other forms of aripiprazole)” value in data set [2] was “lowest Gibbs free energy”.
